Results taken from PubChem BioAssay (NCI).
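A five-concentration, 48-hour dose response in 96-well plates underlies each endpoint, interpolated linearly between surrounding concentrations. Abbreviation: GI50, concentration required for 50% inhibition of growth. TGI marks complete inhibition of growth.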

How the values were obtained:
Assay in all cases: inhibition of tumour cell growth, NCI panel, 48 h
U251 CNS = test system: U251 CNS
K-562 leukemia = test system: K-562 leukemia
786-0 renal = test system: 786-0 renal
NCI/ADR-RES ovarian = test system: NCI/ADR-RES ovarian
UACC-257 melanoma = test system: UACC-257 melanoma
MCF7 breast = test system: MCF7 breast
HOP-62 NSCLC = test system: HOP-62 NSCLC
HCC-2998 colon = test system: HCC-2998 colon
NCI-H226 lung = test system: NCI-H226 lung
HCT-15 colon = test system: HCT-15 colon
SF-539 CNS = test system: SF-539 CNS
HT29 colon = test system: HT29 colon
MDA-MB-231 breast = test system: MDA-MB-231 breast
SNB-19 CNS = test system: SNB-19 CNS
SW-620 colon = test system: SW-620 colon
NCI-H23 lung = test system: NCI-H23 lung
OVCAR-8 ovarian = test system: OVCAR-8 ovarian
IGROV1 ovarian = test system: IGROV1 ovarian
SF-268 CNS = test system: SF-268 CNS
KM12 colon = test system: KM12 colon
HCT-116 colon = test system: HCT-116 colon
HS 578T breast = test system: HS 578T breast
A549 NSCLC = test system: A549 NSCLC
SN12C renal = test system: SN12C renal
NCI-H522 lung = test system: NCI-H522 lung
CAKI-1 renal = test system: CAKI-1 renal
OVCAR-3 ovarian = test system: OVCAR-3 ovarian
MDA-MB-435 = test system: MDA-MB-435
UACC-62 melanoma = test system: UACC-62 melanoma
HL-60(TB) leukemia = test system: HL-60(TB) leukemia
SK-OV-3 ovarian = test system: SK-OV-3 ovarian
SF-295 CNS = test system: SF-295 CNS
TK-10 renal = test system: TK-10 renal
SK-MEL-28 melanoma = test system: SK-MEL-28 melanoma
HOP-92 NSCLC = test system: HOP-92 NSCLC
ACHN renal = test system: ACHN renal
OVCAR-4 ovarian = test system: OVCAR-4 ovarian
MOLT-4 leukemia = test system: MOLT-4 leukemia
BT-549 breast = test system: BT-549 breast
M14 melanoma = test system: M14 melanoma
RPMI-8226 leukemia = test system: RPMI-8226 leukemia
NCI-H460 lung = test system: NCI-H460 lung
UO-31 renal = test system: UO-31 renal
SR leukemia = test system: SR leukemia
PC-3 prostate = test system: PC-3 prostate
T-47D breast = test system: T-47D breast
MALME-3M melanoma = test system: MALME-3M melanoma
COLO 205 colon = test system: COLO 205 colon
SK-MEL-2 melanoma = test system: SK-MEL-2 melanoma
RXF 393 renal = test system: RXF 393 renal
EKVX NSCLC = test system: EKVX NSCLC
CCRF-CEM leukemia = test system: CCRF-CEM leukemia
OVCAR-5 ovarian = test system: OVCAR-5 ovarian
SK-MEL-5 melanoma = test system: SK-MEL-5 melanoma
DU-145 prostate = test system: DU-145 prostate

With `Cc1csc(Nc2nc(-c3cccc(Cl)c3)nc(C(Cl)(Cl)Cl)n2)n1` the GI50 (U251 CNS) was 1.4 µM, the TGI (U251 CNS) was 19.9 µM and the GI50 (K-562 leukemia) was 7.41 µM. For the same compound, the TGI (K-562 leukemia) was > 33.3 µM, the GI50 (786-0 renal) was 11 µM and the TGI (786-0 renal) was > 33.3 µM. For the same compound, the GI50 (NCI/ADR-RES ovarian) was 4.15 µM, the TGI (NCI/ADR-RES ovarian) was > 33.3 µM and the GI50 (UACC-257 melanoma) was 3.53 µM. For the same compound, the TGI (UACC-257 melanoma) was 28 µM, the GI50 (MCF7 breast) was 1.46 µM and the TGI (MCF7 breast) was > 33.3 µM. For the same compound, the GI50 (HOP-62 NSCLC) was 1.27 µM, the TGI (HOP-62 NSCLC) was 7.99 µM and the GI50 (HCC-2998 colon) was 1.22 µM. For the same compound, the TGI (HCC-2998 colon) was 4.71 µM, the GI50 (NCI-H226 lung) was > 33.3 µM and the TGI (NCI-H226 lung) was > 33.3 µM. For the same compound, the GI50 (HCT-15 colon) was 4.46 µM, the TGI (HCT-15 colon) was > 33.3 µM and the GI50 (SF-539 CNS) was 2.04 µM. The TGI (SF-539 CNS) was 11.7 µM, the GI50 (HT29 colon) was 1.04 µM and the TGI (HT29 colon) was 13.1 µM. The GI50 (MDA-MB-231 breast) was 2.17 µM, the TGI (MDA-MB-231 breast) was > 33.3 µM and the GI50 (SNB-19 CNS) was 3.27 µM. The TGI (SNB-19 CNS) was > 33.3 µM, the GI50 (SW-620 colon) was 2.21 µM and the TGI (SW-620 colon) was > 33.3 µM. The GI50 (NCI-H23 lung) was 23.7 µM, the TGI (NCI-H23 lung) was > 33.3 µM and the GI50 (OVCAR-8 ovarian) was 7.77 µM. For the same compound, the TGI (OVCAR-8 ovarian) was > 33.3 µM, the GI50 (IGROV1 ovarian) was 15.7 µM and the TGI (IGROV1 ovarian) was > 33.3 µM. For the same compound, the GI50 (SF-268 CNS) was 6.48 µM, the TGI (SF-268 CNS) was > 33.3 µM and the GI50 (KM12 colon) was 1.64 µM. The TGI (KM12 colon) was 6.21 µM, the GI50 (HCT-116 colon) was 2.29 µM and the TGI (HCT-116 colon) was > 33.3 µM. The GI50 (HS 578T breast) was 1.79 µM, the TGI (HS 578T breast) was 13.2 µM and the GI50 (A549 NSCLC) was 1.06 µM. The TGI (A549 NSCLC) was 5.27 µM, the GI50 (SN12C renal) was 13.5 µM and the TGI (SN12C renal) was > 33.3 µM. For the same compound, the GI50 (NCI-H522 lung) was > 33.3 µM, the TGI (NCI-H522 lung) was > 33.3 µM and the GI50 (CAKI-1 renal) was 3.07 µM. For the same compound, the TGI (CAKI-1 renal) was > 33.3 µM, the GI50 (OVCAR-3 ovarian) was 1.06 µM and the TGI (OVCAR-3 ovarian) was 3.53 µM. The GI50 (MDA-MB-435) was 7.83 µM, the TGI (MDA-MB-435) was > 33.3 µM and the GI50 (UACC-62 melanoma) was 6.73 µM. The TGI (UACC-62 melanoma) was > 33.3 µM, the GI50 (HL-60(TB) leukemia) was 0.994 µM and the TGI (HL-60(TB) leukemia) was 3.81 µM. The GI50 (SK-OV-3 ovarian) was 8.69 µM, the TGI (SK-OV-3 ovarian) was > 33.3 µM and the GI50 (SF-295 CNS) was 1.29 µM. It also gave a TGI (SF-295 CNS) of 9.89 µM, a GI50 (TK-10 renal) of 2.51 µM and a TGI (TK-10 renal) of 14.4 µM. The GI50 (SK-MEL-28 melanoma) was 3.53 µM, the TGI (SK-MEL-28 melanoma) was > 33.3 µM and the GI50 (HOP-92 NSCLC) was 0.801 µM. It also gave a TGI (HOP-92 NSCLC) of 3.21 µM, a GI50 (ACHN renal) of 0.888 µM and a TGI (ACHN renal) of 3.46 µM. For the same compound, the GI50 (OVCAR-4 ovarian) was 10.7 µM, the TGI (OVCAR-4 ovarian) was > 33.3 µM and the GI50 (MOLT-4 leukemia) was 14 µM. The TGI (MOLT-4 leukemia) was > 33.3 µM, the GI50 (BT-549 breast) was > 33.3 µM and the TGI (BT-549 breast) was > 33.3 µM. For the same compound, the GI50 (M14 melanoma) was > 33.3 µM, the TGI (M14 melanoma) was > 33.3 µM and the GI50 (RPMI-8226 leukemia) was 1.22 µM. For the same compound, the TGI (RPMI-8226 leukemia) was > 33.3 µM, the GI50 (NCI-H460 lung) was 1.22 µM and the TGI (NCI-H460 lung) was 5.42 µM. The GI50 (UO-31 renal) was 2.38 µM, the TGI (UO-31 renal) was 15.7 µM and the GI50 (SR leukemia) was 16.8 µM. For the same compound, the TGI (SR leukemia) was > 33.3 µM, the GI50 (PC-3 prostate) was 1.27 µM and the TGI (PC-3 prostate) was 7.85 µM. The GI50 (T-47D breast) was 1.04 µM, the TGI (T-47D breast) was 8.54 µM and the GI50 (MALME-3M melanoma) was > 33.3 µM. The TGI (MALME-3M melanoma) was > 33.3 µM, the GI50 (COLO 205 colon) was 1.04 µM and the TGI (COLO 205 colon) was 5.43 µM. The GI50 (SK-MEL-2 melanoma) was 25.8 µM, the TGI (SK-MEL-2 melanoma) was > 33.3 µM and the GI50 (RXF 393 renal) was 1.12 µM. The TGI (RXF 393 renal) was 6.44 µM, the GI50 (EKVX NSCLC) was 1.25 µM and the TGI (EKVX NSCLC) was 6.89 µM. The GI50 (CCRF-CEM leukemia) was 21.7 µM, the TGI (CCRF-CEM leukemia) was > 33.3 µM and the GI50 (OVCAR-5 ovarian) was 8.86 µM. For the same compound, the TGI (OVCAR-5 ovarian) was > 33.3 µM, the GI50 (SK-MEL-5 melanoma) was > 33.3 µM and the TGI (SK-MEL-5 melanoma) was > 33.3 µM. It also gave a GI50 (DU-145 prostate) of 0.713 µM and a TGI (DU-145 prostate) of 2.01 µM.
